Results from patent US6011019A, “Vasoactive effects and free radical generation by β-amyloid peptides” (University of South Florida, priority 1996, dated 2000).

What was measured:
Sprague-Dawley rats [1] = conditions: rat, in vivo
Procedure: (§2) Eleven three month old male Sprague-Dawley rats (300-350 g) were anesthetized with sodium pentobarbital (50 mg/kg, ip.) and a polyethylene cannula was inserted into the right external jugular vein to approach or enter the right atrium. […] The remaining six animals served as controls by receiving twice daily intravenous infusions of vehicle solution. Treatments were continued for 14 days, with Morris water maze "acquisition" (learning) tested during days 7-13 and water maze memory retention evaluated on day 14. Daily acquisition testing consisted of four consecutive daily trials, wherein latency to reach the submerged platform in Quadrant 2(Q2) was determined and a daily average calculated. For the memory retention trial, the submerged platform was removed and animals were placed in the quadrant opposite Q2. The percentage of time spent in the quadrant formerly containing the platform (Q2) was used as a measure of memory retention. Acquisition data was analyzed using two-way ANOVA for repeated measures and retention data was analyzed with one-way ANOVA and Student's t-test.
On day 15, animals were anesthetized with sodium pentobarbital and transcardially perfused with 4% paraformaldehyde in 0.1M PBS (pH 7.4). Tissue samples from the lung, heart, kidney, liver and pancreas were collected and post-fixed in perfusate solution until histologic processing. Brains were removed and placed in perfusate for 24 hours, followed by cytoprotective storage in 30% sucrose until histologic processing. For all tissues 20 and 40 μm frozen sections were collected and stained with Mayer's Acid Hemalin followed by alkaline Congo red. Selected 20 μm brain sections were stained for glial fibrillary acidic protein (GFAP).

rat aorta = test: Enhancement of endothelin-1 (ET-1) induced vasoconstriction of rat aorta
Procedure: Normal Sprague-Dawley rats were sacrificed by decapitation, and freshly dissected rat aorta was segmented into rings and suspended in Ringers buffer using a tensiometer linked to the MacLab system. Following a two hour equilibration period, the "pretreatment" contraction was carried out. The aortic rings were contracted using a range of doses of endothelin-1 and relaxed using a single odes of acetylcholing (Ach(10^-7 M)). […] The dose of each Aβ peptide was 1 μM, with the exception of Aβ25-35 (1 μM and 5 μM), and was added ten minutes prior to the first ET-1 dose. For SOD treatment we added 150 U/ml 30 seconds before the addition of Aβ.
Endothelium was removed by gently passing a glass pipette, dipped in saline solution, through the lumen of the aortae several time, allowing the pipette to gently brush the endothelial surface. Endothelium was removed from the aortae prior to hanging in the tissue bath system. Both pre-and post treatment contractions involved a single does of ET-1 (5×10^-9 M).
(§1) In all cases the mean difference in percentage contraction in the pre- and post-contractions (before and after addition of test compound respectively) was measured, and compared between the two. Endogenous production of ET-1 was measured using an ET-1 RIA kit (Peninsula Laboratories).

Sprague-Dawley rats [2] = test: Morris water maze acquisition and memory retention during intravenous Aβ infusion; type: in vivo, rat; conditions: days 7-14
Procedure: as §2

basilar artery = test: Diameter of the basilar artery in living animals after Aβ infusion; type: in vivo, rat
Procedure: In the experiments, the animals were infused twice daily for two weeks for an estimated final molarity of 0.5 μM. In the experiments, Aβ1-40 was used. The Aβ infused animals developed gross lung pathology. The lung capillary beds were the first to be reached by the venously infused Aβ. […] This is consistent with the conclusion that in Alzheimer's Disease, the cerebral vasculature could potentially be damaged and destroyed by circulating or locally produced Aβ.

[3] = tested on: human aortic endothelial cel line (HAEC)
Procedure: All these cells were maintained at 37° C., under an atmosphere containing 5% CO2. For the present experiments, HAEC and BE(2)-M17 were seeded at densities of 2×10^4 cells per well in 24-23ll clusters.
The experiments were terminated one half, one, two and three hours post treatment by detachment with Trypsin/EDTA solution and followed by a toxicity assay with trypan blue exclusion. In parallel experiments, cells were attached to a round Thermanox (Nunc) at the bottom of the well, and were stopped three to 24 hours post treatment by fixation with 4% neutral formalin solution which was followed by Hematoxylin-Eosin stain to show morphology.
Morphological changes in cells were monitored throughout the course of the experiment with an inverse phase-contrast microscope. After termination of the experiments, the cells fixed on the Thermanox were subjected to routine Hematoxylin-Eosin (HE) stain. The morphological characteristics of toxic cells were observed under light microscope and typical results were recorded by photographs.
For approximate quantification of Aβ toxicity of HAEC, modified procedure for trypan blue exclusion was employed. In brief, the detached cells were resuspended with an appropriate volume of culture media, 20 μl of this cell suspension was mixed with an equivalent volume of 4% Trypan-blue solution thoroughly, and allowed to sit for two minutes after mixing. Approximately 9 μl of the mixture was transferred to a hemocytometer for cell counting. The cell viability was determined by the equation: [formula] In the case of severe toxicity, where some of the cells were lysed, the total cell numbers were adjusted by that of controls. In this experiment, counts for each sample were triplicated.

ET-1 = test: Endogenous ET-1 release, radioimmunoassay; design: species or system rat; conditions: competition with 125I-labeled ET-1
Procedure: as §1
To investigate the possibility that Aβ releases endogenous stores of ET-1 a radioimmunoassay in which endogenous ET-1 released into the vessel buffer, would compete with ^125 I-labeled ET-1 for binding to a specific antibody was performed. […] In addition, to examine the role played by lipid peroxidation is in the vasoconstrictive mechanism, vessels were contracted in the presence of allopurinol, which inhibits the conversion of xanthine dehydrogenase to xanthine oxidase, preventing lipid peroxidation.

rat coronary arteries = test: Rat coronary artery constriction and relaxation (U46619, acetylcholine); conditions: for constriction of rat coronary artery by the peptide: 10^-6 M peptide
Procedure: The effects of β-amyloid peptide were examined on samples of rat coronary arteries prepared as described above. Referring specifically to FIG. 1, rat coronary arteries were treated with β-amyloid peptide (Aβ40) causing constriction of the coronary arteries.
FIG. 3 illustrates the effect of various amyloid fragments on the constriction of rat coronary arteries. Following control constriction with 10^-7 M U46619, the tissue samples were rinsed, equilibrated with buffer, and treated with 10^-6 M Aβ peptides for fifteen minutes. Following treatment with the Aβ peptides, the blood vessels were rinsed and again exposed to U46619. The values are expressed as percent of control constriction produced by U46619 alone.
The effect of pretreatment of coronary arteries with a single dose (10^-6 M) of A40 on acetylcholine induced relaxation is shown in FIG. 20. The blood vessel was preconstricted with 10^-7 M U46619 and relaxed with increasing doses of acetylcholine (10^-9 M to 10^-5 M).

[4] = tested on: human neuroblastoma cell line (BE(2)-M17); test: Aβ toxicity on BE(2)-M17 (trypan blue exclusion); type: cell-based; conditions: same concentrations as HAEC cultures, up to day eight; data not shown
Text: Trypan blue exclusion was used for the cell viability assay.

Aβ1-40: Soluble Aβ containing forty amino acids; supplied by RBI and/or MD Enterprise
Congo red birefringence in the brains (Sprague-Dawley rats [1]): no Congo red birefringence was observed | perivascular gliosis in GFAP stained brain sections (Sprague-Dawley rats [1]): increased perivascular gliosis was evident | severe vascular accidents in other peripheral tissues (kidney, pancreas, heart) (Sprague-Dawley rats [1]): not, however, typically seen | effect of Aβ on the ET-A antagonist induced decrease of ET-1 contraction (rat aorta): in part countered | enhancement in aortae from older versus younger rats (rat aorta): trend towards greater enhancement in older rats | enhancement of ET-1 contraction (rat aorta; peptide 1 μM (Aβ25-35 1 μM and 5 μM) ten minutes prior to first ET-1 dose): dramatically enhanced the contraction of rat aorta by ET-1 | enhancement of ET-1 contraction in the absence of endothelium (rat aorta; single dose ET-1 5×10^-9 M): enhance contraction of rat aortae to an extent not significantly different from the enhancement observed in the presence of endothelium | water maze acquisition and memory retention (Sprague-Dawley rats [2]): no different from that of vehicle-infused controls | basilar artery diameter (basilar artery): results in constriction of this artery | cell viability at 32 μM [3]: significantly less cell viability compared to control | cell viability at low concentrations [3]: not found to induce significant change of cell viability | toxicity of several batches (RBI, MD, Sigma) [3]: almost non-toxic to HAEC | release of endogenous ET-1 into the vessel buffer (ET-1): did not indicate that any unlabelled ET-1 was present | constriction of rat coronary artery by the peptide (rat coronary arteries): induce constriction of the coronary artery | constriction of rat coronary artery by the peptide (rat coronary arteries; listed as Aβ): small but detectable contraction | duration of constriction compared among fragments (rat coronary arteries; 10^-6 M peptides, real time recording): longest sustained constriction | U46619 induced vasoconstriction following Aβ treatment (rat coronary arteries; 10^-7 M U46619 after 10^-6 M Aβ for fifteen minutes): significantly potentiated | toxic effect on differentiated BE(2)-M17 cells [4]: not toxic effect was noticed
